Source: US20240132484A1, “BROAD SPECTRUM ANTIVIRAL COMPOUNDS TARGETING THE SKI COMPLEX” (priority 2020, published 2024)
“And” between values parts separate entries of the source, which are not always exact repeats. Identical values can stand only once. “Also recorded” adds a separate entry of the source. Like-named read-outs stand apart in the source and are kept apart here.

Assays:
[1] = tested on: cells (nuclei count); settings: for Relative cell count to DMSO controls, Average 1 μM / Relative cell count to DMSO controls, Average 5 μM / Relative cell count to DMSO controls, Average 10 μM / Relative cell count to DMSO controls, Average 25 μM / Relative cell count to DMSO controls, Average 50 μM: toxicity data, 100=DMSO control; for Relative cell count to DMSO controls, Average (for correlation analysis): average value over the 5 tested concentrations (1 to 50 uM); for Toxicity Data, Average, Mean percentage relative to DMSO control: Average of Exp 1 (SMW491) and Exp 2 (SMW492); for Toxicity Data, Percentage Relative to Appropriate DMSO Control: single well
[2] = tested on: SARS2; format: cell-based, SARS-CoV-2; settings: for Percentage Inhibition Average 1 μM / Screening data (Relative infection to DMSO controls) Average 1 μM: SARS2, 1 μM; for Screening data (Relative infection to DMSO controls) Average 1 μM / Screening data (Relative infection to DMSO controls) Average 5 μM / Screening data (Relative infection to DMSO controls) Average 10 μM / Screening data (Relative infection to DMSO controls) Average 25 μM / Screening data (Relative infection to DMSO controls) Average 50 μM / Average (relative infection to DMSO over the 5 tested concentrations): 100=DMSO control; for Percentage Inhibition Average 5 μM / Screening data (Relative infection to DMSO controls) Average 5 μM: SARS2, 5 μM; for Percentage Inhibition Average 10 μM / Screening data (Relative infection to DMSO controls) Average 10 μM: SARS2, 10 μM; for Percentage Inhibition Average 25 μM / Screening data (Relative infection to DMSO controls) Average 25 μM: SARS2, 25 μM; for Percentage Inhibition Average 50 μM / Screening data (Relative infection to DMSO controls) Average 50 μM: SARS2, 50 μM; for Average (relative infection to DMSO over the 5 tested concentrations): SARS2, average over 1 to 50 uM; for Infection Data, Average, Mean percentage infection relative to DMSO control: Average of Exp 1 (SMW491) and Exp 2 (SMW492); for Infection Data, Percentage Infection Relative to Appropriate DMSO Control: single well, avg background subtraction; for Percentage Infection Relative to Appropriate DMSO Control with Avg Background Subtraction: Nunc Celigo plates; for Infection Data, Average, Mean: average of Exp 1-2 (SMW491, SMW492)

SMILES: CC1=C(C(=O)NCc2ccccc2)C(c2ccc(C)o2)NC(=O)N1 (centres unmarked) [SILCS69]
- Relative cell count to DMSO controls, Average 1 μM [1]: 114.56
- Relative cell count to DMSO controls, Average 5 μM [1]: 113.8
- Relative cell count to DMSO controls, Average 10 μM [1]: 108.32
- Relative cell count to DMSO controls, Average 25 μM [1]: 93.65
- Relative cell count to DMSO controls, Average 50 μM [1]: 79.5
- Relative cell count to DMSO controls, Average (for correlation analysis) [1]: 101.97
- Percentage Inhibition Average 1 μM [2]: 44.23%
- Screening data (Relative infection to DMSO controls) Average 1 μM [2]: 55.77
- Percentage Inhibition Average 5 μM [2]: 29.45%
- Screening data (Relative infection to DMSO controls) Average 5 μM [2]: 70.55
- Percentage Inhibition Average 10 μM [2]: 24.51%
- Screening data (Relative infection to DMSO controls) Average 10 μM [2]: 75.49
- Percentage Inhibition Average 25 μM [2]: −26.06%
- Screening data (Relative infection to DMSO controls) Average 25 μM [2]: 126.06
- Percentage Inhibition Average 50 μM [2]: −48.18%
- Screening data (Relative infection to DMSO controls) Average 50 μM [2]: 148.18
- Average (relative infection to DMSO over the 5 tested concentrations) [2]: 95.21

SMILES: COc1ccc(C2NC(=O)NC(C)=C2C(=O)NCc2ccccc2)cc1OC (centres unmarked) [SILCS48]
- Relative cell count to DMSO controls, Average 1 μM [1]: 119.19
- Relative cell count to DMSO controls, Average 5 μM [1]: 115.84
- Relative cell count to DMSO controls, Average 10 μM [1]: 107.43
- Relative cell count to DMSO controls, Average 25 μM [1]: 102.04
- Relative cell count to DMSO controls, Average 50 μM [1]: 77.81
- Toxicity Data, Average, Mean percentage relative to DMSO control ([1]; n=4, 1 uM): 119.19%
- Toxicity Data, Average, Mean percentage relative to DMSO control ([1]; n=4, 5 uM): 115.84%
- Toxicity Data, Average, Mean percentage relative to DMSO control ([1]; n=4, 10 uM): 107.43%
- Toxicity Data, Average, Mean percentage relative to DMSO control ([1]; n=4, 25 uM): 102.04%
- Toxicity Data, Average, Mean percentage relative to DMSO control ([1]; n=4, 50 uM): 77.81%
- Toxicity Data, Percentage Relative to Appropriate DMSO Control ([1]; Exp 1 (SMW491), 1 uM): 112% and 102%
- Toxicity Data, Percentage Relative to Appropriate DMSO Control ([1]; Exp 1 (SMW491), 5 uM): 108% and 106%
- Toxicity Data, Percentage Relative to Appropriate DMSO Control ([1]; Exp 1 (SMW491), 10 uM): 86% and 88%
- Toxicity Data, Percentage Relative to Appropriate DMSO Control ([1]; Exp 1 (SMW491), 25 uM): 95% and 88%
- Toxicity Data, Percentage Relative to Appropriate DMSO Control ([1]; Exp 1 (SMW491), 50 uM): 79% and 77%
- Toxicity Data, Percentage Relative to Appropriate DMSO Control ([1]; Exp 2 (SMW492), 1 uM): 130% and 132%
- Toxicity Data, Percentage Relative to Appropriate DMSO Control ([1]; Exp 2 (SMW492), 5 uM): 115% and 135%
- Toxicity Data, Percentage Relative to Appropriate DMSO Control ([1]; Exp 2 (SMW492), 10 uM): 135% and 121%
- Toxicity Data, Percentage Relative to Appropriate DMSO Control ([1]; Exp 2 (SMW492), 25 uM): 109% and 116%
- Toxicity Data, Percentage Relative to Appropriate DMSO Control ([1]; Exp 2 (SMW492), 50 uM): 81% and 75%
- Relative cell count to DMSO controls, Average (for correlation analysis) [1]: 104.46
- Infection Data, Average, Mean percentage infection relative to DMSO control ([2]; n=4, 1 uM): 71.69%
- Infection Data, Average, Mean percentage infection relative to DMSO control ([2]; n=4, 5 uM): 75.19%
- Infection Data, Average, Mean percentage infection relative to DMSO control ([2]; n=4, 10 uM): 85.09%
- Infection Data, Average, Mean percentage infection relative to DMSO control ([2]; n=4, 25 uM): 100.34%
- Infection Data, Average, Mean percentage infection relative to DMSO control ([2]; n=4, 50 uM): 160.04%
- Infection Data, Percentage Infection Relative to Appropriate DMSO Control ([2]; Exp 1 (SMW491), 1 uM): 87.03% and 82.70%
- Infection Data, Percentage Infection Relative to Appropriate DMSO Control ([2]; Exp 1 (SMW491), 5 uM): 70.35% and 83.94%
- Infection Data, Percentage Infection Relative to Appropriate DMSO Control ([2]; Exp 1 (SMW491), 10 uM): 96.64% and 110.53%
- Infection Data, Percentage Infection Relative to Appropriate DMSO Control ([2]; Exp 1 (SMW491), 25 uM): 102.87% and 119.89%
- Infection Data, Percentage Infection Relative to Appropriate DMSO Control ([2]; Exp 1 (SMW491), 50 uM): 159.63% and 145.37%
- Infection Data, Percentage Infection Relative to Appropriate DMSO Control ([2]; Exp 2 (SMW492), 1 uM): 59.24% and 57.80%
- Infection Data, Percentage Infection Relative to Appropriate DMSO Control ([2]; Exp 2 (SMW492), 5 uM): 84.51% and 61.96%
- Infection Data, Percentage Infection Relative to Appropriate DMSO Control ([2]; Exp 2 (SMW492), 10 uM): 49.42% and 83.79%
- Infection Data, Percentage Infection Relative to Appropriate DMSO Control ([2]; Exp 2 (SMW492), 25 uM): 97.57% and 81.03%
- Infection Data, Percentage Infection Relative to Appropriate DMSO Control ([2]; Exp 2 (SMW492), 50 uM): 177.82% and 157.32%
- Percentage Inhibition Average 1 μM [2]: 28.31%
- Screening data (Relative infection to DMSO controls) Average 1 μM [2]: 71.69
- Percentage Inhibition Average 5 μM [2]: 24.81%
- Screening data (Relative infection to DMSO controls) Average 5 μM [2]: 75.19
- Percentage Inhibition Average 10 μM [2]: 14.91%
- Screening data (Relative infection to DMSO controls) Average 10 μM [2]: 85.09
- Percentage Inhibition Average 25 μM [2]: −0.34%
- Screening data (Relative infection to DMSO controls) Average 25 μM [2]: 100.34
- Percentage Inhibition Average 50 μM [2]: −60.04%
- Screening data (Relative infection to DMSO controls) Average 50 μM [2]: 160.04
- Average (relative infection to DMSO over the 5 tested concentrations) [2]: 98.47

SMILES: COc1ccc(CNCCc2ccccc2F)c(OCC(O)CN2CCN(C)CC2)c1 (racemic) [SILCS41]
- Relative cell count to DMSO controls, Average 1 μM [1]: 118.33
- Relative cell count to DMSO controls, Average 5 μM [1]: 139.55
- Relative cell count to DMSO controls, Average 10 μM [1]: 124.03
- Relative cell count to DMSO controls, Average 25 μM [1]: 118.34
- Relative cell count to DMSO controls, Average 50 μM [1]: 101.49
- Toxicity Data, Average, Mean percentage relative to DMSO control ([1]; n=4, 1 uM): 118.33%
- Toxicity Data, Average, Mean percentage relative to DMSO control ([1]; n=4, 5 uM): 139.55%
- Toxicity Data, Average, Mean percentage relative to DMSO control ([1]; n=4, 10 uM): 124.03%
- Toxicity Data, Average, Mean percentage relative to DMSO control ([1]; n=4, 25 uM): 118.34%
- Toxicity Data, Average, Mean percentage relative to DMSO control ([1]; n=4, 50 uM): 101.49%
- Relative cell count to DMSO controls, Average (for correlation analysis) [1]: 120.35
- SARS2 antiviral activity [2]: better activity than the original compound; also recorded: improved properties over UMB18g
- Percentage Infection Relative to Appropriate DMSO Control with Avg Background Subtraction ([2]; Exp 1 (SMW491), 1 uM): 92.14% and 78.53%
- Percentage Infection Relative to Appropriate DMSO Control with Avg Background Subtraction ([2]; Exp 1 (SMW491), 5 uM): 20.40% and 20.73%
- Percentage Infection Relative to Appropriate DMSO Control with Avg Background Subtraction ([2]; Exp 1 (SMW491), 10 uM): 2.55% and 1.51%
- Percentage Infection Relative to Appropriate DMSO Control with Avg Background Subtraction ([2]; Exp 1 (SMW491), 25 uM): 2.26% and 4.77%
- Percentage Infection Relative to Appropriate DMSO Control with Avg Background Subtraction ([2]; Exp 1 (SMW491), 50 uM): 5.27% and 3.84%
- Percentage Infection Relative to Appropriate DMSO Control with Avg Background Subtraction ([2]; Exp 2 (SMW492), 1 uM): 11.86% and 10.73%
- Percentage Infection Relative to Appropriate DMSO Control with Avg Background Subtraction ([2]; Exp 2 (SMW492), 5 uM): 15.34% and 12.91%
- Percentage Infection Relative to Appropriate DMSO Control with Avg Background Subtraction ([2]; Exp 2 (SMW492), 10 uM): 1.08% and 2.35%
- Percentage Infection Relative to Appropriate DMSO Control with Avg Background Subtraction ([2]; Exp 2 (SMW492), 25 uM): 1.58% and 3.10%
- Percentage Infection Relative to Appropriate DMSO Control with Avg Background Subtraction ([2]; Exp 2 (SMW492), 50 uM): 8.27% and 6.25%
- Percentage Inhibition Average 1 μM [2]: 51.68%
- Screening data (Relative infection to DMSO controls) Average 1 μM [2]: 48.32
- Percentage Inhibition Average 5 μM [2]: 82.65%
- Screening data (Relative infection to DMSO controls) Average 5 μM [2]: 17.35
- Percentage Inhibition Average 10 μM [2]: 98.13%
- Screening data (Relative infection to DMSO controls) Average 10 μM [2]: 1.87
- Percentage Inhibition Average 25 μM [2]: 97.07%
- Screening data (Relative infection to DMSO controls) Average 25 μM [2]: 2.93
- Percentage Inhibition Average 50 μM [2]: 94.09%
- Screening data (Relative infection to DMSO controls) Average 50 μM [2]: 5.91
- Average (relative infection to DMSO over the 5 tested concentrations) [2]: 15.28
- Infection Data, Average, Mean ([2]; n 4, 1 uM): 48.32%
- Infection Data, Average, Mean ([2]; n 4, 5 uM): 17.35%
- Infection Data, Average, Mean ([2]; n 4, 10 uM): 1.87%
- Infection Data, Average, Mean ([2]; n 4, 25 uM): 2.93%
- Infection Data, Average, Mean ([2]; n 4, 50 uM): 5.91%

SMILES: CC1=C(C(=O)OC2CCCCCCC2)C(c2ccc3c(c2)OCO3)NC(=O)N1 (centres unmarked) [UMB22_5]
- SARS2 antiviral activity [2]: improved activity than ring open analogs

SMILES: O=C(NC1CCCCCC1)c1cn[nH]c1-c1ccc2c(c1)OCCO2 [UMB22_16]
- SARS2 antiviral activity [2]: improved activity than ring open analogs
